From patent publication US5571521A (priority 1995, dated 1996)
Where two headings read alike, the source gives them in different places.

Experiments:
[1] = tested on: Cercospora arachidicola; experiment: Control of peanut leafspot on plants; format: in vivo; conditions: for Percent Disease Control, Preventive: inoculated 24 hours after application; for Percent Disease Control, Curative: inoculated 24 hours before application
[2] = tested on: Phytophthora infestans; format: in vivo
[3] = tested on: Candida Albicans; experiment: Inhibition of microorganism growth in Miller-Hinton broth (Minimal Inhibitory Concentration); format: cell-based; conditions: Table 1, evaluated at 18 hours
Procedure: (§1) For each of the microorganisms listed below a culture was grown in Miller-Hinton broth (24 hour culture), and then diluted at a 1:100 ratio. This diluted culture was then grown for an additional two hours, after which the silver diphenyl hydantoin was added. […]

[4] = tested on: Pseudomonas aeruginosa; experiment: as above; format: cell-based; conditions: Table 1, evaluated at 18 hours
Procedure: as §1

[5] = tested on: Klebsiella; experiment: as above; format: cell-based; conditions: Table 1, evaluated at 18 hours
Procedure: as §1

[6] = tested on: Enterococcus (Group D Strep); experiment: as above; format: cell-based; conditions: Table 1; 20 micrograms/ml; evaluated at 18 hours
Procedure: as §1

[7] = tested on: Staphloccoccus aereus; experiment: as above; format: cell-based; conditions: Table 1, evaluated at 18 hours
Procedure: as §1

[8] = tested on: Plasmopara viticola; experiment: Control of grape downy mildew on plants; format: in vivo; conditions: for Percent Disease Control, Preventive: inoculated 24 hours after application; for Percent Disease Control, Curative: inoculated 24 hours before application
[9] = tested on: pure cultures of organisms; experiment: Antibacterial action in pure cultures on blood agar plates; format: cell-based
[10] = tested on: Seratia; experiment: Inhibition of microorganism growth in Miller-Hinton broth (Minimal Inhibitory Concentration); format: cell-based, Serratia M.; conditions: Table 1, evaluated at 18 hours
Procedure: as §1

[11] = tested on: Venturia inaequalis; experiment: Control of apple scab on plants; format: in vivo; conditions: inoculated 24 hours after application
[12] = tested on: host tissue; experiment: Toxicity toward host tissue

In the case of “Silver Ammonium Diphenyl Hydantoin [Silver ammonium phenytoin]”, the “Percent Disease Control, Preventive” value ([1]; 5 ppm) is reported as 16%, the “Percent Disease Control, Curative” value ([1]; 5 ppm) is reported as 0% and the “Percent Disease Control, Curative” value ([1]; 20 ppm) is reported as 0%. For the same substance, the “Percent Disease Control, Preventive” value ([1]; 100 ppm) was 78%, the “Percent Disease Control, Curative” value ([1]; 100 ppm) was 60% and the “Percent Disease Control” value ([2]; 5 ppm) was 17%. For the same substance, the “Percent Disease Control” value ([2]; 20 ppm) was 95%, the “Percent Disease Control” value ([2]; 100 ppm) was 98% and the “inhibition (Minimal Inhibitory Concentration table)” value (from here on “inhibition”) ([3]; 20 micrograms/ml) was “+”. The “inhibition” value ([3]; 40 micrograms/ml) was “+”, the “inhibition” value ([4]; 20 micrograms/ml) was “+” and the “inhibition” value ([4]; 40 micrograms/ml) was “+”. For the same substance, the “inhibition” value ([5]; 1 microgram/ml) was “+”, the “inhibition” value ([5]; 10 micrograms/ml) was “+” and the “inhibition” value ([5]; 20 micrograms/ml) was “+”. The “inhibition” value [6] was “+”, the “inhibition” value ([7]; 20 micrograms/ml) was “+” and the “inhibition” value ([7]; 40 micrograms/ml) was “+”. The “Percent Disease Control, Preventive” value ([8]; 5 ppm) was 24%, the “Percent Disease Control, Curative” value ([8]; 5 ppm) was 0% and the “Percent Disease Control, Preventive” value ([8]; 20 ppm) was 49%. The “Percent Disease Control, Curative” value ([8]; 20 ppm) was 0%, the “Percent Disease Control, Preventive” value ([8]; 100 ppm) was 87% and the “Percent Disease Control, Curative” value ([8]; 100 ppm) was 0%. For the same substance, the Antibacterial action [9] was “Antibacterial action, was also demonstrated”, the “inhibition” value ([10]; 10 micrograms/ml) was “+” and the “inhibition” value ([10]; 20 micrograms/ml) was “+”. For the same substance, the “inhibition” value ([10]; 40 micrograms/ml) was “+”, the “Percent Disease Control, Preventive” value ([11]; 5 ppm) was 17% and the “Percent Disease Control, Preventive” value ([11]; 20 ppm) was 95%. For the same substance, the “Percent Disease Control, Preventive” value ([11]; 100 ppm) was 98% and the “toxicity toward host tissue” value [12] was “low toxicity toward host tissue”.
